How the values were obtained:
[1] = target: T1, STAT5A (Homo sapiens, UniProt P42229); test: Fluorescence polarization (FP) binding assay, STAT5A; conditions: FP competition, 5 nM fluorescein-labeled tracer, 200 nM protein, PBS pH7.4
T1 sequence (P42229 1-794): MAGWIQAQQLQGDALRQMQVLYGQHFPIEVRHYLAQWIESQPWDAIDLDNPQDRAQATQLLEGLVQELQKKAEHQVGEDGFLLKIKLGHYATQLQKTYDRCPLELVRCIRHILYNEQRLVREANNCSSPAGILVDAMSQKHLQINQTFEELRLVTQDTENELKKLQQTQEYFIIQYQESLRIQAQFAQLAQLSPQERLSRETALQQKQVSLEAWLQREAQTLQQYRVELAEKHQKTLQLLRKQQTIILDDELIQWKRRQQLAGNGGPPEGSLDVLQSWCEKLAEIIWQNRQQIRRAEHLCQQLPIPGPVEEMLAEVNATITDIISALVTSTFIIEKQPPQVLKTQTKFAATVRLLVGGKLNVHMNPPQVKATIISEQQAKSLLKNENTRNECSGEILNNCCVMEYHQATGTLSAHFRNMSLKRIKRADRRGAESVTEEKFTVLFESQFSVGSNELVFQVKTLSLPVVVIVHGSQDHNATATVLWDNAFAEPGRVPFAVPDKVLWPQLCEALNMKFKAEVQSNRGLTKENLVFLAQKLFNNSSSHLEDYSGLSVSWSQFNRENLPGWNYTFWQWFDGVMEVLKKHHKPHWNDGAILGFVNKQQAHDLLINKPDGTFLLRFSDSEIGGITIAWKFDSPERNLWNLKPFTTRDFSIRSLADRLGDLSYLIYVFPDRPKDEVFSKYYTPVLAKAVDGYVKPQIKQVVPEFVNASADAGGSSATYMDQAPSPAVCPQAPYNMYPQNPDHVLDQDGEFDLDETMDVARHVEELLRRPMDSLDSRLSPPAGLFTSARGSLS
Outline: (§1)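 Polarization read after 1 h equilibration at room temperature (preceded by 15 min shaking) of 200 nM STAT5 and/or STAT6 with 5 nM fluorescein tracer. Buffer: PBS pH 7.4 plus 0.01% BGG, 0.01% Tween-20, 2 mM DTT; inhibition constants derived by nonlinear fitting.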

[2] = target: T2, STAT6 protein (Homo sapiens, UniProt P42226); test: Fluorescence polarization (FP) binding assay, STAT6; conditions: FP competition, 5 nM fluorescein-labeled tracer, 200 nM protein, PBS pH7.4; read-out: Binding STAT6
T2 sequence (P42226 1-847): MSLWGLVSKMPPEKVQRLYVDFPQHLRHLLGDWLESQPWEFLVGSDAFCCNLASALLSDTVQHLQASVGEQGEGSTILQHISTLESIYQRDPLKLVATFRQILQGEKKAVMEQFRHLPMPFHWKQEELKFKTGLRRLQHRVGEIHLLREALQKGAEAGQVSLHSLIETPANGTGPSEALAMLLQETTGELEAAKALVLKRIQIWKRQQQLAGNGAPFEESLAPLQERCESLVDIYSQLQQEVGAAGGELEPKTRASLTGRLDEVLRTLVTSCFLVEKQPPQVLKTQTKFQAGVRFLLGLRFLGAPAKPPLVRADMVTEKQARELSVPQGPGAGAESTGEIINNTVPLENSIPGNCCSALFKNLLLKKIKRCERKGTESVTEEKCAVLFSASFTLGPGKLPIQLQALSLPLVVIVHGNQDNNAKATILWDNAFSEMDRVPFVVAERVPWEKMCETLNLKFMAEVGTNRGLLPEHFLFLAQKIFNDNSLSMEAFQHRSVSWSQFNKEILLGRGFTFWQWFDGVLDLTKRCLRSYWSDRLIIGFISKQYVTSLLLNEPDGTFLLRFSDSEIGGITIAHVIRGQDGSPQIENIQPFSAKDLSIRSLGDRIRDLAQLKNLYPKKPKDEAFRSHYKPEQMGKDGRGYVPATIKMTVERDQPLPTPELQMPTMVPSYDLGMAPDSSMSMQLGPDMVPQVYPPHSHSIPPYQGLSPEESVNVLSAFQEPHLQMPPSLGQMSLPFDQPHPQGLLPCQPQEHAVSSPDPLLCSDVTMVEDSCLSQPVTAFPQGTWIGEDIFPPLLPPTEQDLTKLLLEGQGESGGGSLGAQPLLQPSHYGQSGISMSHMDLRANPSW
Outline: as §1

| SMILES | Ki [1] [µM] | Ki [2] [µM] |
| --- | --- | --- |
| CC(=O)N1CCC(C(NC(=O)c2cc3cc(C(F)(F)P(=O)(O)O)ccc3[nH]2)C(=O)N2CCC[C@H]2C(=O)N2CCc3ccccc3C2)CC1 (stereo partly drawn) [Compound 34, ((2-((1-(1-acetylpiperidin-4-yl)-2-oxo-2-((S)-2-(1,2,3,4-tetrahydroisoquinoline-2-carbonyl)pyrrolidin-1-yl)ethyl)carbamoyl)-1H-indol-5-yl)difluoromethyl)phosphonic acid] | > 10 | > 10 |
| O=C(N[C@@H](CC1=CCN(Cc2ccccc2)CC1)C(=O)N1CCC[C@H]1C(=O)N1CCc2ccccc2C1)c1cc2cc(C(F)(F)P(=O)(O)O)ccc2[nH]1 [Compound 35, ((2-(((S)-3-(1-benzyl-1,2,3,6-tetrahydropyridin-4-yl)-1-oxo-1-((S)-2-(1,2,3,4-tetrahydroisoquinoline-2-carbonyl)pyrrolidin-1-yl)propan-2-yl)carbamoyl)-1H-indol-5-yl)difluoromethyl)phosphonic acid] | > 10 | > 10 |
| O=C(N[C@@H](CC1CCNCC1)C(=O)N1CCC[C@H]1C(=O)N1CCc2ccccc2C1)c1cc2cc(C(F)(F)P(=O)(O)O)ccc2[nH]1 [Compound 36, (difluoro(2-(((S)-1-oxo-3-(piperidin-4-yl)-1-((S)-2-(1,2,3,4-tetrahydroisoquinoline-2-carbonyl)pyrrolidin-1-yl)propan-2-yl)carbamoyl)-1H-indol-5-yl)methyl)phosphonic acid] | > 10 | > 10 |
| CC(C)(C)[C@H](NC(=O)c1cc2cc(C(F)(F)P(=O)(O)O)ccc2s1)C(=O)N1CCC[C@H]1C(=O)N(c1ccc(I)cc1)c1ccc(C(=O)OCc2ccccc2)cc1 [Compound 37, ((2-(((S)-1-((S)-2-((4-((benzyloxy)carbonyl)phenyl)(4-iodophenyl)carbamoyl)pyrrolidin-1-yl)-3,3-dimethyl-1-oxobutan-2-yl)carbamoyl)benzo[b]thiophen-5-yl)difluoromethyl)phosphonic acid] | 1 to 10 | 0.1 to 1 |
| COC(=O)CCN(C(=O)[C@@H]1CCCN1C(=O)[C@@H](NC(=O)c1cc2cc(C(F)(F)P(=O)(O)O)ccc2s1)C(C)(C)C)c1ccccc1 [Compound 38, (difluoro(2-(((S)-1-((S)-2-((3-methoxy-3-oxopropyl)(phenyl)carbamoyl)pyrrolidin-1-yl)-3,3-dimethyl-1-oxobutan-2-yl)carbamoyl)benzo[b]thiophen-5-yl)methyl)phosphonic acid] | 1 to 10 | 1 to 10 |
| CC(C)(C)[C@H](NC(=O)c1cc2cc(C(F)(F)P(=O)(O)O)ccc2s1)C(=O)N1CCC[C@H]1C(=O)N(c1ccccc1)c1ccc(I)cc1 [Compound 39, (difluoro(2-(((S)-1-((S)-2-((4-iodophenyl)(phenyl)carbamoyl)pyrrolidin-1-yl)-3,3-dimethyl-1-oxobutan-2-yl)carbamoyl)benzo[b]thiophen-5-yl)methyl)phosphonic acid] | 1 to 10 | 0.1 to 1 |
| CC(C)(C)[C@H](NC(=O)c1cc2cc(C(F)(F)P(=O)(O)O)ccc2[nH]1)C(=O)N1CCC[C@H]1C(=O)N(c1ccc(Cl)cc1)C1CCCCC1 [Compound 40, ((2-(((S)-1-((S)-2-((4-chlorophenyl)(cyclohexyl)carbamoyl)pyrrolidin-1-yl)-3,3-dimethyl-1-oxobutan-2-yl)carbamoyl)-1H-indol-5-yl)difluoromethyl)phosphonic acid] | 1 to 10 | 0.1 to 1 |
| CNC(=O)c1ccc(N(C(=O)[C@@H]2CCCN2C(=O)[C@@H](NC(=O)c2cc3cc(C(F)(F)P(=O)(O)O)ccc3s2)C(C)(C)C)c2ccc(I)cc2)cc1 [Compound 42, (difluoro(2-(((S)-1-((S)-2-((4-iodophenyl)(4-(methylcarbamoyl)phenyl)carbamoyl)pyrrolidin-1-yl)-3,3-dimethyl-1-oxobutan-2-yl)carbamoyl)benzo[b]thiophen-5-yl)methyl)phosphonic acid] | 1 to 10 | 0.1 to 1 |
| COC(=O)CCN(C(=O)[C@@H]1CCCN1C(=O)[C@@H](NC(=O)c1cc2cc(C(F)(F)P(=O)(O)O)ccc2s1)C(C)(C)C)c1ccc(Br)cc1 [Compound 43] | 0.1 to 1 | 0.1 to 1 |
| CNC(=O)c1ccc(N(C(=O)[C@@H]2CCCN2C(=O)[C@@H](NC(=O)c2cc3cc(C(F)(F)P(=O)(O)O)ccc3s2)C(C)(C)C)c2ccc(Cl)cc2)cc1 [Compound 44, ((2-(((S)-1-((S)-2-((4-chlorophenyl)(4-(methylcarbamoyl)phenyl)carbamoyl)pyrrolidin-1-yl)-3,3-dimethyl-1-oxobutan-2-yl)carbamoyl)benzo[b]thiophen-5-yl)difluoromethyl)phosphonic acid] | 1 to 10 | 0.1 to 1 |
| CNC(=O)CCN(C(=O)[C@@H]1CCCN1C(=O)[C@@H](NC(=O)c1cc2cc(C(F)(F)P(=O)(O)O)ccc2s1)C(C)(C)C)c1ccc(Br)cc1 [Compound 45, ((2-(((S)-1-((S)-2-((4-bromophenyl)(3-(methylamino)-3-oxopropyl)carbamoyl)pyrrolidin-1-yl)-3,3-dimethyl-1-oxobutan-2-yl)carbamoyl)benzo[b]thiophen-5-yl)difluoromethyl)phosphonic acid] | 1 to 10 | 0.1 to 1 |
| CC(C)(C)[C@H](NC(=O)c1cc2cc(C(F)(F)P(=O)(O)O)ccc2s1)C(=O)N1CCC[C@H]1C(=O)N(CCC(=O)O)c1ccc(Br)cc1 [Compound 46, 3-((S)-N-(4-bromophenyl)-1-((S)-2-(5-(difluoro(phosphono)methyl)benzo[b]thiophene-2-carboxamido)-3,3-dimethylbutanoyl)pyrrolidine-2-carboxamido)propanoic acid] | 0.1 to 1 | 0.1 to 1 |
| CC(C)(C)[C@H](NC(=O)c1cc2cc(C(F)(F)P(=O)(O)O)ccc2s1)C(=O)N1CCC[C@H]1C(=O)N1CCCC12CCCC2 [Compound 58, ((2-(((S)-1-((S)-2-(1-azaspiro[4.4]nonane-1-carbonyl)pyrrolidin-1-yl)-3,3-dimethyl-1-oxobutan-2-yl)carbamoyl)benzo[b]thiophen-5-yl)difluoromethyl)phosphonic acid] | > 10 | 1 to 10 |
| CC(C)(C)[C@H](NC(=O)c1cc2cc(C(F)(F)P(=O)(O)O)ccc2s1)C(=O)N1CCC[C@H]1C(=O)N1CCC2(CCCC2)C1 [Compound 59, ((2-(((S)-1-((S)-2-(2-azaspiro[4.4]nonane-2-carbonyl)pyrrolidin-1-yl)-3,3-dimethyl-1-oxobutan-2-yl)carbamoyl)benzo[b]thiophen-5-yl)difluoromethyl)phosphonic acid] | > 10 | 1 to 10 |
| CC(C)(C)[C@H](NC(=O)c1cc2cc(C(F)(F)P(=O)(O)O)ccc2s1)C(=O)N1CCC[C@H]1C(=O)N1CCCC12CCCCC2 [Compound 60, ((2-(((S)-1-((S)-2-(1-azaspiro[4.5]decane-1-carbonyl)pyrrolidin-1-yl)-3,3-dimethyl-1-oxobutan-2-yl)carbamoyl)benzo[b]thiophen-5-yl)difluoromethyl)phosphonic acid] | > 10 | 1 to 10 |
| CC(C)(C)[C@H](NC(=O)c1cc2cc(C(F)(F)P(=O)(O)O)ccc2s1)C(=O)N1CCC[C@H]1C(=O)N1CCC2(CCCCC2)C1 [Compound 61, ((2-(((S)-1-((S)-2-(2-azaspiro[4.5]decane-2-carbonyl)pyrrolidin-1-yl)-3,3-dimethyl-1-oxobutan-2-yl)carbamoyl)benzo[b]thiophen-5-yl)difluoromethyl)phosphonic acid] | > 10 | 1 to 10 |

— patent publication US20230295200A1 (REGENTS OF THE UNIVERSITY OF MICHIGAN, priority 2022, published 2023)
